Laboratory results: paper PMC3397457, “Preclinical Evaluation of Anticancer Efficacy and Pharmacological Properties of FBA-TPQ, a Novel Synthetic Makaluvamine Analog” (Marine Drugs, 2012)

Tests used:
HPAC cells [1] = test: Cell cycle distribution by flow cytometry, HPAC; assay type: cell-based, human; settings: 1 µM
Experimental: The effects of FBA-TPQ on cell cycle distribution were analyzed using the previously reported methods; its effects appeared to be cell-line-dependent (Figure 2c). […] The differences in the responses of the different cell lines may be related to their expression of p53.
To determine the effect of FBA-TPQ on the cell cycle, cells (2–3 × 10^5) were exposed to the test compounds (0, 0.1, 0.5 or 1 µM) and incubated for 24 h prior to analysis. Cells were trypsinized, washed with PBS, and fixed in 1.5 mL of 95% ethanol and 0.5 mL of 0.9% saline solution at 4 °C overnight, followed by incubation with RNAse and staining with propidium iodide (Sigma). The DNA content was determined by flow cytometry. The cell cycle distribution was evaluated by comparing with that of the control cells.

Panc-1 cells = test: Annexin V apoptosis assay/flow cytometry, Panc-1; assay type: cell-based, human; settings: Panc-1, 1 µM, 48 h
Experimental: (§1) The apoptotic cells were detected using a method reported previously. […] In HPAC cells, a 1 µM concentration of FBA-TPQ increased the apoptotic index two-fold higher than that seen in control cells (P < 0.01). […] In the Mia PaCa-2 cells, FBA-TPQ at 1 µM led to a three-fold increase in apoptosis (P < 0.01).
(§2) Following a similar protocol as above, cells in early and late stages of apoptosis were detected using an Annexin V-FITC apoptosis detection kit from BioVision (Mountain View, CA, USA), according to the manufacturer’s protocol. For apoptosis experiments, 2–3 × 10^5 cells were exposed to the test compound (0, 0.1, 0.5 and 1.0 µM) and incubated for 48 h prior to analysis. Cells were collected and washed with serum-free media. Cells were then re-suspended in 500 µL of Annexin V binding buffer followed by addition of 5 µL of Annexin V-FITC and 5 µL of propidium iodide (PI). The samples were incubated in the dark for 5 min at room temperature and analyzed with a Becton Dickinson FACSCalibur instrument (Ex = 488 nm; Em = 530 nm). Cells that were positive for Annexin V-FITC alone (early apoptosis) and Annexin V-FITC and PI (late apoptosis) were counted. The apoptotic index was calculated against the untreated control cells.

[2] = Stability in plasma and tissue samples; assay type: in vitro ADME, mouse; settings: RE within ±15%
Experimental: The stability of FBA-TPQ was evaluated at two concentrations (0.5 and 5.0 µM). […] At the designated time points, the samples were extracted and analyzed using the established RRLC analytical method. The stability of FBA-TPQ was assessed by comparing the initial concentration (time 0) with the final concentration following incubation of the compound at the noted temperatures, and expressing this difference as a percentage of the initial concentration.

[3] = tested on: prostate, breast, and ovarian cancer cell lines; design: method as in PMID 19274441, PMID 19451594, PMID 21673964; settings: cited from earlier work
HPAC cells [4] = test: MTT cell survival assay, HPAC; assay type: cell-based; settings: Homo sapiens, 72 h, read-out: Cytotoxicity IC50
Experimental: We evaluated the effects of FBA-TPQ on the survival of several human pancreatic cancer cell lines, including HPAC (p53^+/+), Panc-1(p53^+/−), and Mia PaCa-2(p53^+/−), as well as normal IRM90 fetal fibroblast cells (Figure 2a). Cells were exposed to various concentrations of the test compound (0–10 µM) for 72 h, and cell survival rates were determined by the MTT assay, using a procedure reported previously. FBA-TPQ exerted potent effects against the test cancer cell lines, leading to significant decreases in cell viability.
Human pancreatic cancer cells were obtained from the American Type Culture Collection (Rockville, MD). All cell culture media contained 10% FBS and 1% penicillin/streptomycin. […]
The effect of the test compound on human pancreatic cancer cell viability, expressed as the percentage of cell survival, was determined using the MTT (3-(4,5-dimethylthiazol-2-yl)-2,5-diphenyl tetrazolium bromide) assay. […] The absorbance at 570 nm was recorded using an OPTImax microplate reader (Molecular Devices; Sunnyvale, CA, USA). The cell survival percentages were calculated by dividing the mean OD of compound-containing wells by that of DMSO-containing control wells. […]

HPAC cells [5] = test: Annexin V apoptosis assay/flow cytometry, HPAC; assay type: cell-based, human; settings: 1 µM, 48 h
Experimental: as §1, §2

O=C1C(NCc2ccc(F)cc2)=CC2=NCCc3c[nH]c1c32 [FBA-TPQ, 7-(4-fluorobenzylamino)-1,3,4,8-tetrahydropyrrolo[4,3,2-de]quinolin-8(1H)-one]
cell cycle arrest (HPAC cells [1]): arrest in the G2/M phase | increase in apoptosis vs control cells (Panc-1 cells): four-fold | stability in plasma and tissue samples ([2]; 3 months at −80 °C): stable | stability in plasma and tissue samples ([2]; 2 h at 22 °C following three freeze/thaw cycles (−20 to 22 °C)): stable | stability in plasma and tissue samples ([2]; 24 h after preparation at 22 °C, low and high concentrations): stable | IC50 values [3]: nanomolar/low micromolar | IC50 (HPAC cells [4]): 540 ± 30 nM | increase of apoptotic index vs control cells (HPAC cells [5]): two-fold
